# In ChEMBL document CHEMBL1201862, “PubChem BioAssay data set” (2004):
# Calls of active or inactive are those of the source.
# Tests used:
# [1] = target: Type-1 angiotensin II receptor (Homo sapiens, UniProt P30556); assay: AT1 receptor antagonists, dose response, selectivity assay for APJ receptor antagonist project, cell-based, uHTS hits (AID 463214); type: functional;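 note: antagonist potency against angiotensin II stimulated AT1 response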
# [2] = target: Beta-galactosidase (Escherichia coli, UniProt Q8VNN2); assay: PubChem AID 485352; type: functional
# [3] = target: T1, E3 ubiquitin-protein ligase XIAP (Homo sapiens, UniProt P98170); assay: XIAP antagonists, biochemical, IAP family, fluorescence polarization (AID 1018); type: functional
# [4] = target: T1, E3 ubiquitin-protein ligase XIAP; assay: Counter Screen using XIAP-Bir3 for Chemical Antagonists of Bir1/2 domains of IAP-family anti-apoptotic proteins. [Related pubchem assays (depositor defined):AID1018, AID1449, AID1514, AID1638, AID1749, AID1750, AID488957, AID488963]
# [5] = target: T2, Leucine aminopeptidase (Plasmodium falciparum 3D7, UniProt Q8IL11); assay: P. falciparum M17LAP inhibitors, primary screen, biochemical, fluorogenic H-Leu-NHMec substrate, 1536-well (AID 1619); type: functional
# T2 sequence (Q8IL11 whole entry): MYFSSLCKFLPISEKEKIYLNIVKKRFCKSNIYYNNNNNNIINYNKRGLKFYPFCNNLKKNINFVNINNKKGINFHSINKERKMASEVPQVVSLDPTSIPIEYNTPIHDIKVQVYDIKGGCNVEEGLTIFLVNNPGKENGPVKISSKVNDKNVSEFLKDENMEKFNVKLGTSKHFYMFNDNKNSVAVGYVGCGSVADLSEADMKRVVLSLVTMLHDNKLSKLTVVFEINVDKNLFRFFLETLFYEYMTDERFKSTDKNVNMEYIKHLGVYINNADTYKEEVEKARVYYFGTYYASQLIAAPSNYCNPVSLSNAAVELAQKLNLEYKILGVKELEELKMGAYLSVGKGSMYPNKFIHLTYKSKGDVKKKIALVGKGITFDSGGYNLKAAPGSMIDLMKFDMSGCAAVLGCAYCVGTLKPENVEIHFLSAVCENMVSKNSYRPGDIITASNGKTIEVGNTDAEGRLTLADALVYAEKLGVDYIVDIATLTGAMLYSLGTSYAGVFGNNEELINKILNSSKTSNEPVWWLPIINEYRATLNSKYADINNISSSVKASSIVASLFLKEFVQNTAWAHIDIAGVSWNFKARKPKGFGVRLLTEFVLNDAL
# [6] = target: FAD-linked sulfhydryl oxidase ALR (Homo sapiens, UniProt P55789); assay: inhibitors of human ALR sulfhydryl oxidase, dose response, biochemical, H2O2 detection, luminescence, cherry-pick (AID 493248)
# [7] = target: Keap1/Nrf2 (Homo sapiens, UniProt Q14145); assay: Keap1-Nrf2 protein-protein interaction inhibitors, dose response, biochemical, fluorescence polarization, cherry-picked samples (AID 588683)
# [8] = cytotoxicity in HEK-293T cells, dose response, cytotoxicity control for TCR NF-kB inhibitor project, luminescence, T-cell screen hits (AID 489026); type: functional, cell-based;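 note: cells exposed to compound about 14 hours before the viability readout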
# [9] = HepG2 cell cytotoxicity, dose response, cytotoxicity control for non-replicating M. tuberculosis project (AID 489018); type: functional; details: Mycobacterium tuberculosis
# [10] = Vero E6 cell cytotoxicity, dose response, cytotoxicity control for non-replicating M. tuberculosis project, secondary assay (AID 492998); type: functional, VeroE6; details: Vero C1008
# [11] = C. albicans growth with fluconazole, confirmation, fluorescence, retest (AID 2467); type: functional, cell-based
# [12] = test system: INS1; assay: beta cell apoptosis inhibitors, cytokine rescue, dose response, luminescence, retest (AID 449756); type: functional, cell-based; details: Rattus norvegicus;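 note: cell death triggered by IL-1 beta plus TNF-alpha plus IFN-gamma mixture; protective hits raise ATP signal compared with cytokine alone wells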
# [13] = inhibitors of SNCA 5'UTR-driven reporter translation, confirmation, H4 neuroglioma cells, luminescence (AID 1988); type: functional, cell-based
# [14] = Luminescence Cell-Based Dose Response HTS to Identify Inhibitors of 5'UTR Stem-Loop Driven Prion Protein mRNA Translation in H4 Neuroglioblastoma Cells. [Related pubchem assays: 1827 (Project Summary), 1813 (Primary HTS)]; type: functional
# [15] = inhibitors of firefly luciferase expression or activity, dose response, H4 neuroglioma cells, luminescence (AID 1990); type: functional, cell-based
# [16] = NIH-3T3 fibroblast cytotoxicity, dose response, cytotoxicity control, cell-based, fluorescence, Alamar Blue, secondary assay (AID 2327); type: functional;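 note: NIH-3T3 mouse fibroblasts cultured with fluconazole at 8 µg/mL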
# [17] = THP-1 cell cytotoxicity, dose response, cytotoxicity control for non-replicating M. tuberculosis project (AID 489025); type: functional
# T1 sequence (P98170 whole entry): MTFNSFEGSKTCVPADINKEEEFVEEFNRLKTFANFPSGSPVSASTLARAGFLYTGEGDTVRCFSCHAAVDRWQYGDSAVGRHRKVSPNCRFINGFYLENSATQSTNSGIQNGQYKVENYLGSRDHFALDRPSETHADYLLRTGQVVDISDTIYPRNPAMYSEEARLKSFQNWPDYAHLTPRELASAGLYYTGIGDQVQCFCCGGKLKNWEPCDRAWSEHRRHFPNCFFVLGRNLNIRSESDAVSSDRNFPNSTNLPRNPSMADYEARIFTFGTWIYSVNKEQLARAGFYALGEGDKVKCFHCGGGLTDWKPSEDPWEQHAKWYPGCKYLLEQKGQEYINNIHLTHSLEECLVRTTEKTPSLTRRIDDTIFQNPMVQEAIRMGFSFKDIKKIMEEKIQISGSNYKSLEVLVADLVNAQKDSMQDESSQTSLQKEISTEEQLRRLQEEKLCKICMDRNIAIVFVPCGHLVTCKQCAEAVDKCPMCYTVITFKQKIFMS
# Chain of Type-1 angiotensin II receptor (P30556 whole entry): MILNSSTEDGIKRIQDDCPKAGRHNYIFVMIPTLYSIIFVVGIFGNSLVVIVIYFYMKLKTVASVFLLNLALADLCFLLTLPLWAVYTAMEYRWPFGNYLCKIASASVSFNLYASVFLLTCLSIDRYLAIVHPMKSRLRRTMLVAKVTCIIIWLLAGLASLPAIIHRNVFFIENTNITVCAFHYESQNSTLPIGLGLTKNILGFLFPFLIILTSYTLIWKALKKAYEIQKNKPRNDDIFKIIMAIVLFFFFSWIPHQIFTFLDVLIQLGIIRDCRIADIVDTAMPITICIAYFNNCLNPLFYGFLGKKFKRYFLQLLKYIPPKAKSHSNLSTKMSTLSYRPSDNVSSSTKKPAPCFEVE
# Chain of Keap1/Nrf2 (Q16236 whole entry): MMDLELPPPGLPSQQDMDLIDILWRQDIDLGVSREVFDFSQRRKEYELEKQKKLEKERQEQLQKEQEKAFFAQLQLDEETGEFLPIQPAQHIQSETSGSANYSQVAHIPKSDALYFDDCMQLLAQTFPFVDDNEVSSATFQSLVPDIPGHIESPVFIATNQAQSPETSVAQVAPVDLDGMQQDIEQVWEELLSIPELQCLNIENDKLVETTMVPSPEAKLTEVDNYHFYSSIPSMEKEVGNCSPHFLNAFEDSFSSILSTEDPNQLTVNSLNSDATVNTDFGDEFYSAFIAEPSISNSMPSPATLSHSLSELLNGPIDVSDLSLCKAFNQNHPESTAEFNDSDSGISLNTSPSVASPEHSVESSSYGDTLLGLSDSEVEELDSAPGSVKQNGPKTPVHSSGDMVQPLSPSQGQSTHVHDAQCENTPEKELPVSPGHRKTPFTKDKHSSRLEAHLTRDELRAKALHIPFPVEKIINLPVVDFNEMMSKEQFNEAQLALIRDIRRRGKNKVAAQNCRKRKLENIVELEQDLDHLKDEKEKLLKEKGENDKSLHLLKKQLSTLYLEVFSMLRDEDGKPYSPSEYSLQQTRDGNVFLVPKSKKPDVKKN
# Chain of Keap1/Nrf2 (Q14145 whole entry): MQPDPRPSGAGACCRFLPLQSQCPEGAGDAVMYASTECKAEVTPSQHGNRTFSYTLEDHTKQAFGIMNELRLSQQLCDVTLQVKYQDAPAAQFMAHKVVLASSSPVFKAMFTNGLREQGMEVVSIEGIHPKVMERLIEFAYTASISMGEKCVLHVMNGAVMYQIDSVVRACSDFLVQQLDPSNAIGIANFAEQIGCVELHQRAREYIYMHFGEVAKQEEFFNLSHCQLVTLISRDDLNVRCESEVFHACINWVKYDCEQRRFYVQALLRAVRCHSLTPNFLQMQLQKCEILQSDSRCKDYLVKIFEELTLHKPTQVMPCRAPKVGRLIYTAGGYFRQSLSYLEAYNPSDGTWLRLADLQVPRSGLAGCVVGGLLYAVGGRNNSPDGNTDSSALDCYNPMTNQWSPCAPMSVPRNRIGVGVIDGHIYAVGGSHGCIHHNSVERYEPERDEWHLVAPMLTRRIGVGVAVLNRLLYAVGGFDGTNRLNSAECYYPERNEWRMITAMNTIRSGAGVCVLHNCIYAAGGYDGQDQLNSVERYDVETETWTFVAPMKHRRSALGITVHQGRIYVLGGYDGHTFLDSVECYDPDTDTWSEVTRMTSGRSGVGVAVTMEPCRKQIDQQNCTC
# Chain of FAD-linked sulfhydryl oxidase ALR (P55789 whole entry): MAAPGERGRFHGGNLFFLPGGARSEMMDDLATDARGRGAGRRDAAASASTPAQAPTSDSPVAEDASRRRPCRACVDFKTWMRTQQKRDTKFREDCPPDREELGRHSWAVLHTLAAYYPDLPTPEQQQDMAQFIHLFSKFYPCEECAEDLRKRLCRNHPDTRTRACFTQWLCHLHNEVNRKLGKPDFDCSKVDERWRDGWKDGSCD
# Chain of Beta-galactosidase (Q8VNN2 whole entry): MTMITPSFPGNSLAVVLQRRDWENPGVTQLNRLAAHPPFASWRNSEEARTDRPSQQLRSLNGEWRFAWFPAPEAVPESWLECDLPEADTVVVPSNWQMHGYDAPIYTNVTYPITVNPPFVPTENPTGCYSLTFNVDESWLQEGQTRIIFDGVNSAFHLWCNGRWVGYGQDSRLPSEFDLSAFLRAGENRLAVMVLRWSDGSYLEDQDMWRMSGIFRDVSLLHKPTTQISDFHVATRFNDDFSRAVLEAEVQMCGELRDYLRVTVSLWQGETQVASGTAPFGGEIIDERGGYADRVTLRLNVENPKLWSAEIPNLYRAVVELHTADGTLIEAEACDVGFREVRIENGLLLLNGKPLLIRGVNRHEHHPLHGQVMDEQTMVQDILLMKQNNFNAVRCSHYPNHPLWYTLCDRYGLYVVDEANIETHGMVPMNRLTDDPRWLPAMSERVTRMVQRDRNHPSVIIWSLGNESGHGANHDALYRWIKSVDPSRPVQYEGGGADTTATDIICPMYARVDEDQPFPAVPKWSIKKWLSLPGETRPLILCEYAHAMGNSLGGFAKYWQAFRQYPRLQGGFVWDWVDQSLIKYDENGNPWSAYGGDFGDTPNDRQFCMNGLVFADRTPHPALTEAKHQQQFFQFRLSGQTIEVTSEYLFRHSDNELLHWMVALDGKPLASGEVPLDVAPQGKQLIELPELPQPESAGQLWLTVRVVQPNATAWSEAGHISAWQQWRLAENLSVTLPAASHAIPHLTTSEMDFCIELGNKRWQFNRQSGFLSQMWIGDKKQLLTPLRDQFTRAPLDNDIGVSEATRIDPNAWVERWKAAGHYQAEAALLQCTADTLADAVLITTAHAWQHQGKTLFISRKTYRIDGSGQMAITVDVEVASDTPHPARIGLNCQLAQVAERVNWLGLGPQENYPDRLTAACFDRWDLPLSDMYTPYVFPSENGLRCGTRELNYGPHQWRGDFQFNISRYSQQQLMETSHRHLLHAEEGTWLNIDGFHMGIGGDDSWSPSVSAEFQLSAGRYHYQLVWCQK
compound,measurement,setting,value
Cc1cccc(NC(=S)NNc2ncc(C(F)(F)F)cc2Cl)c1,IC50,[1],13.1 µM (active)
same,EC50,[2],> 40 µM (inactive)
O=[N+]([O-])c1ccccc1S(=O)(=O)N1CCCCC1,IC50,[3],> 100 µM (not active)
same,IC50,[4],> 100 µM (inactive)
CSc1cccc(NC(=O)CN2C(=O)c3ccccc3S2(=O)=O)c1,IC50,[5],5.87 µM (active)
same,IC50,[3],> 100 µM (not active)
same,AC50,[6],2.37 µM (active)
same,IC50,[4],> 100 µM (inactive)
COc1cccc(/C=C/C(=O)OCC(=O)NC(=O)NC2CCCC2)c1,AC50,[7],> 52 µM (inactive)
CCCCCCCCCCn1ccc(=N)cc1,IC50,[8],> 80 µM (inactive)
same,CC50,[9],7.25 µM (active)
same,CC50,[10],11.4 µM (active)
same,EC50,[11],0.055 µM (active)
same,AC50,[12],0.471 µM (active)
same,EC50,[13],8.93 µM (active)
same,EC50,[14],8.51 µM (active)
same,EC50,[15],10.3 µM (active)
same,EC50,[16],22.5 µM (active)
same,CC50,[17],1.57 µM (active)
